System: rats
Test: Elevated plus maze (stress or anxiety)
Format: in vivo, rat
Conditions: for Time spent in the open arm (% control): rats, n=8 per group
Experimental: All experiments were performed according to the National Health and Medical Research Council of Australia “Code of practise for the care and use of animals for scientific purposes”. Male Spraque Dawley rats, (250-270 g) are housed individually and given water and standard rat chow ad libitum. On the day of surgery, the rats were anaesthetized with 5% isofluorane, placed in a stereotaxic frame and maintained on 2% isofluorane for the duration of the cannula implantation procedure. The rats were stereotaxically implanted with chronic indwelling cannula (Plastics One) into the cerebral lateral ventricles using the following flat skull coordinates 0.8 mm posterior to Bregma, 1.55 mm lateral to midline and 3.5 mm ventral to the dura. The cannula was then secured to the skull with stainless steel screws and dental cement. Seven days following surgery, proper cannula placement was verified by a bolus injection of angiotensin II (1 nmol/μl).
The elevated plus maze was used to investigate the potential effect of IRAP inhibitors on stress or anxiety. The elevated plus maze consists of two open arms (70×10 cm) with a 5 cm high surrounding wall and two enclosed arms (70×10 cm) with a 27 cm high surrounding wall. The floor of the open and closed arms are white laminate, the open arm walls are clear perspex, and the closed arms walls dark grey perspex. The maze is elevated 85 cm above the ground in the centre of a room that is lit by overhead lights generating 1241 ux. […] The time spent in the closed arms compared to the open arms was a measure of the anxiety status of the animals.

- Time spent in the open arm (% control) (0.1 nmol intracerebroventricularly): 121.62 ± 28.26 % control
- Time spent in the open arm (% control) (1 nmol intracerebroventricularly): 127.88 ± 19.18 % control
- stress compared to vehicle, by time spent in the open arm of the elevated plus maze (0.1 and 1 nmol intracerebroventricularly): not significantly more or less stressed
Structure (SMILES): CCOC(=O)C1=C(NC(C)=O)Oc2cc(O)ccc2C1c1cccnc1 (stereo not drawn) [Compound 2, Ethyl 2-(acetylamino)-7-hydroxy-4-pyridin-3-yl-4H-chromene-3-carboxylate]

Source: patent US8377963B2, “Insulin-regulated aminopeptidase (IRAP) inhibitors and uses thereof” (Howard Florey Institute, priority 2007, dated 2013)
